Residues, ends and D or L forms follow the SMILES beside them.
Tests used:
[1] = system: Human polymorphonuclear leukocytes (PMN); assay: Phagocytosis assay; format: cell-based; details: compared to tuftsin; statistically significant differences at peptide concentrations of 0.1, 1.0 and 10 μg/ml; fluorescent microspheres, 15 min
Experimental: Human polymorphonuclear leukocytes (PMN) are prepared from venous blood of healthy donors. Heparinized blood is mixed with dextran and kept at 37° C. for 1 hour. The leukocyte-rich plasma is collected and centrifuged. The resulting pellet is washed with Hank's balanced salt solution (HBSS). The pellet is then suspended into HBSS, layered over Lymphocyte Separation Medium (LSM) and centrifuged. The sedimented cells are washed with HBSS. Contaminant erythrocytes are lysed by suspending the cells in sterile water for 15 seconds. The isotonicity is then restored by adding 10XHBSS. After centrifuging, the PMN are washed with HBSS, suspended in the same medium, counted, and adjusted to 1×10^6 viable cells/ml (viability>95% by trypan blue dye exclusion). Cells (0.5×10^6 cells/well) are plated in 24 well plate and placed in a 37° C. CO2 incubator for 30 min. to form a monolayer. Thereafter the supernatant is aspirated. Tuftsin or analog in 250 μl HBSS and 1.25×10^7 fluorescent microspheres (2 μm diameter) in 250 μl HBSS, are added to each well resulting in a particle to PMN ratio of 25:1, mixed, and incubated for 15 min. The supernatant is then quickly aspirated and each well washed with HBSS. […] After 10 min, % phagocytosis (% of PMN containing one or more particles) is counted under a microscope. […]

K-562 tumor target cells = assay: Tumor cell cytotoxicity assay by human natural killer (NK) cells (51Cr release); format: cell-based; details: compared to tuftsin; NK cells activated 1 hour with 10 μg peptide per ml; 4 hour 51Cr release, K-562 targets
Experimental: A leukocyte-rich buffy coat preparation obtained from leukophoresis of a normal volunteer is used. Buffy coat is diluted with HBSS, layered over LSM, and centrifuged. The mononuclear cells at interphase are collected, washed with HBSS, suspended in RPMI-1640 medium with 10% FBS, adjusted to 5×10^6 /l ml, plated on Petri dishes (10 ml each), and incubated for 1 hour. Non-adherent cells are collected, poured into bottles containing nylon wool wet with HBSS, and kept in the incubator for 1 hour. Non-adherent cells are collected, suspended in RPMI-1640 medium with 10% FBS, adjusted to 2×10^7 /ml, mixed (1:1 volume ratio) with sheep red blood cells (6×10^8 /ml), placed in 29° C. bath for 15 min., centrifuged, and again placed in 29° C. bath for another hour. Cell clumps are gently broken up, layered over LSM, and centrifuged. […]
The viability of this NK cell enriched fraction is assessed with trypan blue, and washed with RPMI-1640 medium with 5% FBS. […] Filters containing radioactive supernatants are counted on a γ counter and counts per minutes (cpm) are recorded. Percent cytotoxicity (% specific lysis) is calculated by the following formula: [formula] […] Maximum cpm is obtained by releasing the radioactivity from the target cells by treatment with Triton X-100.

Splenocytes = assay: Thymidine incorporation assay (growth stimulation); format: cell-based, C57BL/6 female mouse; details: compared to tuftsin; peptide 10 μg/ml; adherent and non-adherent splenocytes; 3H-thymidine
Experimental: Spleen is obtained from C57BL/6 female mouse (approximately 3 months old). Splenocytes are prepared by teasing the spleen and passing them through a sieving screen. These cells in HBSS with 2% FBS are then layered over LSM and centrifuged. The cells at interphase are collected, washed with RPMI-1640 medium with 2% FBS, suspended in the same medium at 1×10^6 cells/ml, and plated into wells (1×10^6 cells per well). The plate is incubated for 45 min. in the incubator. Non-adherent cells in each well are transferred to a new well. Adherent cells and non-adherent cells are incubated in separate wells with peptide (10 μg/ml) for 6 hours in 1 ml RPMI-1640 medium with 2% FBS. ^3 H-thymidine (0.1 μCi per well) is then introduced. The plate is kept in the incubator for another 18 hours. Each well is washed and cells are collected into a tube using 1 ml of cold HBSS. After washing the cells twice, the cells are counted, mixed with 0.2 ml of 0.1% sodium dodecyl sulfate, and transferred to a liquid scintillation vial for determination of radioactivity.

In the case of `CC(C)C[C@H](NC(=O)[C@H](CCCCN)NC(=O)[C@@H](N)[C@@H](C)O)C(=O)N[C@@H](CCCCN)C(=O)O` [tuftsin analog, L-Thr-L-Lys-L-Leu-L-Lys] (H-TKLK-OH), the “stimulation of phagocytosis (% phagocytosis)” value [1] is reported as “significantly greater stimulation of phagocytosis at lower concentrations compared to tuftsin itself”, the “tumor cell cytotoxicity enhancement of human NK cells” value (K-562 tumor target cells) is reported as “significantly greater tumor cell cytotoxicity enhancement of human NK cells” and the “stimulating thymidine incorporation (growth stimulation)” value (Splenocytes) is reported as “significantly greater activity in stimulating thymidine incorporation (growth stimulation) than did tuftsin”.
